Data: ChEMBL document CHEMBL5608185, “Design, synthesis and evaluation of carbamate-bridged amino acid prodrugs of cycloicaritin with improved antitumor activity, aqueous solubility and phase II metabolic stability” (Eur J Med Chem, 2024)
Converted amounts (≈) assume the structure as drawn.

Assays:
[1] = Aqueous solubility of the compound incubated for 72 hrs by shake-flask method; type: physicochemical; conditions: buffer
[2] = Octanol/water partition coefficient, logP of the compound incubated for 72 hrs by HPLC-MS/MS analysis; type: physicochemical
[3] = Chemical stability of the compound assessed as half life at pH 1.2 by HPLC analysis; type: physicochemical; conditions: buffer
[4] = Chemical stability of the compound assessed as half life at pH 4.5 by HPLC analysis; type: physicochemical; conditions: buffer
[5] = Chemical stability of the compound assessed as half life at pH 6.8 by HPLC analysis; type: physicochemical; conditions: buffer
[6] = Chemical stability of the compound assessed as half life at pH 7.4 by HPLC analysis; type: physicochemical; conditions: buffer
[7] = Chemical stability of the compound in simulated gastric fluid assessed as half life by HPLC analysis; type: ADME, physicochemical
[8] = Chemical stability of the compound in simulated intestinal fluid assessed as half life by HPLC analysis; type: ADME, physicochemical
[9] = Stability in Sprague-Dawley rat intestine homogenates assessed as half life at pH 7.4 by HPLC analysis; type: ADME, tissue-based
[10] = Stability in Sprague-Dawley rat liver homogenates assessed as half life at pH 7.4 by HPLC analysis; type: ADME, tissue-based
[11] = Stability in Sprague-Dawley rat blood homogenates assessed as half life at pH 7.4 by HPLC analysis; type: ADME, tissue-based
[12] = Stability at phase II in rat liver microsomes assessed as half life at 10 uM measured every 10 mins for 70 mins by HPLC-UV analysis; type: ADME, Microsome
[13] = Stability in rat liver microsomes assessed as parent compound remaining at 10 uM measured after 70 mins by HPLC-UV analysis; type: ADME, Microsome; conditions: read-out: Stability
[14] = Drug uptake in human Caco-2 cells over 1 to 100 uM incubated for 10 mins by HPLC-MS/MS analysis; type: ADME, cell-based; conditions: caco-2, 10 min, dose 1-100 µM
[15] = Drug uptake in human Caco-2 cells at 5 uM at pH 7.4 incubated for 10 mins by HPLC-MS/MS analysis; type: ADME, cell-based; conditions: caco-2, pH 7.4, 10 min
[16] = Drug uptake in human Caco-2 cells at 5 uM incubated for 10 mins in presence of Estrone-3-sulfate by HPLC-MS/MS analysis; type: ADME, cell-based; conditions: caco-2, 10 min
[17] = Drug uptake in human Caco-2 cells at 5 uM incubated for 10 mins in presence of fexofenadine by HPLC-MS/MS analysis; type: ADME, cell-based; conditions: caco-2, 10 min
[18] = Oral bioavailability in rat; type: ADME, organism-based; conditions: in vivo
[19] = Drug metabolism in rat liver microsomes at 10 uM measured upto 70 mins by HPLC-UV analysis; type: ADME, Microsome; conditions: 1.167 h
[20] = Drug uptake in human Caco-2 cells over 0.5 to 50 uM incubated for 10 mins by HPLC-MS/MS analysis; type: ADME, cell-based; conditions: caco-2, 10 min, dose 0.5-50 µM
[21] = Drug uptake in human Caco-2 cells at 5 uM at pH 6.0 incubated for 10 mins by HPLC-MS/MS analysis; type: ADME, cell-based; conditions: caco-2, pH 6, 10 min
[22] = Drug uptake in human Caco-2 cells at 5 uM incubated for 10 mins in presence of glycyl-sarcosine by HPLC-MS/MS analysis; type: ADME, cell-based; conditions: caco-2, 10 min
HepG2 = assay: Cytotoxicity against human HepG2 cells assessed as reduction in cell viability incubated for 72 hrs by MTT assay; type: functional, cell-based
4T1 [23] = assay: Cytotoxicity against mouse 4T1 cells assessed as reduction in cell viability incubated for 72 hrs by MTT assay; type: functional, cell-based
[24] = Selectivity ratio of cytotoxicity against human HepG2 cells to cytotoxicity against mouse 4T1 cells
[25] = Cytotoxicity against mouse 3T3 cells assessed as reduction in cell viability incubated for 72 hrs by MTT assay; type: toxicity, cell-based; conditions: NIH3T3 cells
[26] = Cmax in male Sprague-Dawley rat at 20 mg/kg, po measured up to 12 hrs in presence of fexofenadine by HPLC-MS/MS analysis; type: ADME, organism-based; conditions: in vivo, with fexofenadine (dose not stated)
[27] = Cmax in male Sprague-Dawley rat at 20 mg/kg, po measured up to 12 hrs in presence of glycyl-sarcosine by HPLC-MS/MS analysis; type: ADME, organism-based; conditions: in vivo, with glycyl-sarcosine (dose not stated)
[28] = AUC (0 to t) in male Sprague-Dawley rat at 20 mg/kg, po measured up to 12 hrs in presence of fexofenadine by HPLC-MS/MS analysis; type: ADME, organism-based; conditions: in vivo, with fexofenadine (dose not stated)
[29] = AUC (0 to t) in male Sprague-Dawley rat at 20 mg/kg, po measured up to 12 hrs in presence of glycyl-sarcosine by HPLC-MS/MS analysis; type: ADME, organism-based; conditions: in vivo, with glycyl-sarcosine (dose not stated)
4T1 [30] = assay: Antitumor activity against mouse 4T1 cells xenografted in BALB/c mouse model assessed as reduction in tumor growth administered once daily via oral gavage and measured every two days for 16 days; type: functional, cell-based; conditions: dose 35-150 mg/kg, time 16.0 day
[31] = Toxicity in BALB/c mouse assessed as effect on body weight at 35 to 150 mg/kg, po measured after 16 days; type: organism-based; conditions: in vivo, 384 h, dose 35-150 mg/kg, time 16 day
[32] = Toxicity in BALB/c mouse assessed as effect on ALT level at 35 to 150 mg/kg, po measured after 16 days; type: organism-based; conditions: in vivo, 384 h, dose 35-150 mg/kg, time 16 day
[33] = Toxicity in BALB/c mouse assessed as effect on AST level at 35 to 150 mg/kg, po measured after 16 days; type: organism-based; conditions: in vivo, 384 h, dose 35-150 mg/kg, time 16 day
[34] = Toxicity in BALB/c mouse assessed as effect on CREA level at 35 to 150 mg/kg, po measured after 16 days; type: organism-based; conditions: in vivo, 384 h, dose 35-150 mg/kg, time 16 day
[35] = Toxicity in BALB/c mouse assessed as effect on BUN level at 35 to 150 mg/kg, po measured after 16 days; type: organism-based; conditions: in vivo, 384 h, dose 35-150 mg/kg, time 16 day
[36] = Prodrug conversion in Sprague-Dawley rat assessed as Cmax of cycloicaritin metabolite at 20 mg/kg, po measured up to 12 hrs by HPLC-MS/MS analysis; type: ADME, organism-based; conditions: in vivo
[37] = Prodrug conversion in Sprague-Dawley rat assessed as Tmax of cycloicaritin metabolite at 20 mg/kg, po measured up to 12 hrs by HPLC-MS/MS analysis; type: ADME, organism-based; conditions: in vivo
[38] = Prodrug conversion in Sprague-Dawley rat assessed as half life of cycloicaritin metabolite at 20 mg/kg, po measured up to 12 hrs by HPLC-MS/MS analysis; type: ADME, organism-based; conditions: in vivo
[39] = Prodrug conversion in Sprague-Dawley rat assessed as AUC (0 to t) of cycloicaritin metabolite at 20 mg/kg, po measured up to 12 hrs by HPLC-MS/MS analysis; type: ADME, organism-based; conditions: in vivo
[40] = Cmax in Sprague-Dawley rat at 20 mg/kg, po measured upto 12 hrs by HPLC-MS/MS analysis; type: ADME, organism-based; conditions: in vivo
[41] = Tmax in Sprague-Dawley rat at 20 mg/kg, po measured upto 12 hrs by HPLC-MS/MS analysis; type: ADME, organism-based; conditions: in vivo
[42] = Half life in Sprague-Dawley rat at 20 mg/kg, po measured upto 12 hrs by HPLC-MS/MS analysis; type: ADME, organism-based; conditions: in vivo
[43] = AUC (0 to t) in Sprague-Dawley rat at 20 mg/kg, po measured upto 12 hrs by HPLC-MS/MS analysis; type: ADME, organism-based; conditions: in vivo

COc1ccc(-c2oc3c4c(cc(O)c3c(=O)c2OC(=O)NCC(=O)O)OC(C)(C)CC4)cc1
solubility thermodynamic at 72 h [1]: 3.64 µM (≈ 1.71 µg/mL)
logP at 72 h [2]: 3.66
half-life [3]: > 720 min
half-life [4]: > 720 min
half-life [5]: 313 min
half-life [6]: 118 min
half-life [7]: > 720 min
half-life [8]: 314 min
half-life [9]: 113 min
half-life [10]: 118 min
half-life [11]: 15 min
half-life at 10 µM [12]: > 69.6 min
remaining at 1.167 h, 10 µM [13]: 76%
Drug uptake [14]: Not Active

CC[C@H](C)[C@H](NC(=O)Oc1c(-c2ccc(OC)cc2)oc2c3c(cc(O)c2c1=O)OC(C)(C)CC3)C(=O)O
solubility thermodynamic at 72 h [1]: 11.4 µM (≈ 6.01 µg/mL)
logP at 72 h [2]: 2.69
half-life [3]: > 720 min
half-life [4]: > 720 min
half-life [5]: > 720 min
half-life [6]: 298 min
half-life [7]: > 720 min
half-life [8]: > 720 min
half-life [9]: 283 min
half-life [10]: 277 min
half-life [11]: 21.6 min
half-life at 10 µM [12]: > 69.6 min
remaining at 1.167 h, 10 µM [13]: 76%
Drug uptake [14]: Not Active
Drug uptake [15]: Not Active
Drug uptake [16]: Not Active
Drug uptake [17]: Not Active

COc1ccc(-c2oc3c(CC=C(C)C)c(O)cc(O)c3c(=O)c2O)cc1 [ICARITIN]
bioavailability [18]: 4.3%

COc1ccc(-c2oc3c4c(cc(O)c3c(=O)c2OC(=O)N[C@@H](Cc2ccccc2)C(=O)O)OC(C)(C)CC4)cc1
solubility thermodynamic at 72 h [1]: 2.68 µM (≈ 1.5 µg/mL)
logP at 72 h [2]: 4.33
half-life [3]: > 720 min
half-life [4]: > 720 min
half-life [5]: > 720 min
half-life [6]: 365 min
half-life [7]: > 720 min
half-life [8]: > 720 min
half-life [9]: 351 min
half-life [10]: 362 min
half-life [11]: 27 min
half-life at 10 µM [12]: > 69.6 min
remaining at 1.167 h, 10 µM [13]: 76%
Drug uptake [14]: Not Active

COc1ccc(-c2oc3c4c(cc(O)c3c(=O)c2O)OC(C)(C)CC4)cc1
solubility thermodynamic at 72 h [1]: 0.81 µM (≈ 0.298 µg/mL)
logP at 72 h [2]: 3.8
half-life [3]: > 720 min
half-life [4]: > 720 min
half-life [5]: > 720 min
half-life [6]: > 720 min
half-life [7]: > 720 min
half-life [8]: > 720 min
half-life [9]: > 720 min
half-life [10]: > 720 min
half-life [11]: > 720 min
half-life at 10 µM [12]: 37.2 min
Drug metabolism [19]: Metabolite_Detected
remaining at 1.167 h, 10 µM [13]: 27%
Drug uptake [20]: Active
Drug uptake [21]: Active
Drug uptake [15]: Active
Drug uptake [16]: Active
Drug uptake [17]: Active
Drug uptake [22]: Active
Activity (HepG2): Dose-Dependent Effect
Activity (4T1 [23]): Dose-Dependent Effect
Selectivity ratio [24]: 1.8
IC50 at 72 h [25]: > 50 µM

COc1ccc(-c2oc3c4c(cc(O)c3c(=O)c2OC(=O)N[C@@H](CCC(=O)O)C(=O)O)OC(C)(C)CC4)cc1
solubility thermodynamic at 72 h [1]: 1.1 µM (≈ 0.596 µg/mL)

COc1ccc(-c2oc3c4c(cc(O)c3c(=O)c2OC(=O)N[C@@H](CC(C)C)C(=O)O)OC(C)(C)CC4)cc1
solubility thermodynamic at 72 h [1]: 13 µM (≈ 6.84 µg/mL)
logP at 72 h [2]: 3.42
half-life [3]: > 720 min
half-life [4]: > 720 min
half-life [5]: > 720 min
half-life [6]: > 720 min
half-life [7]: > 720 min
half-life [8]: > 720 min
half-life [9]: 520 min
half-life [10]: 516 min
half-life [11]: 30 min
half-life at 10 µM [12]: > 69.6 min
remaining at 1.167 h, 10 µM [13]: 76%
Drug uptake [14]: Not Active
Drug uptake [21]: Active
Drug uptake [15]: Not Active
Drug uptake [16]: Not Active
Drug uptake [17]: Not Active
Drug uptake [22]: Active
Activity (HepG2): Dose-Dependent Effect
Activity (4T1 [23]): Dose-Dependent Effect
IC50 at 72 h [25]: > 100 µM
Cmax [26]: 47.4 nM
Cmax [27]: 204 nM
AUC(0-t) at 12 h [28]: 0.303 µM·h
AUC(0-t) at 12 h [29]: 0.812 µM·h
Activity (4T1 [30]): Dose-Dependent Effect
Activity [31]: Non-Toxic
Activity [32]: Non-Toxic
Activity [33]: Non-Toxic
Activity [34]: Non-Toxic
Activity [35]: Non-Toxic
Cmax [36]: 66.6 nM
Tmax [37]: 54 min
t1/2 [38]: 6.96 h
AUCt [39]: 158.7 nM·h
Cmax [40]: 156 nM
Tmax [41]: 1 h
half-life [42]: 320 min
AUC(0-t) at 12 h [43]: 0.463 µM·h

COc1ccc(-c2oc3c4c(cc(O)c3c(=O)c2OC(=O)N[C@H](C(=O)O)C(C)C)OC(C)(C)CC4)cc1
solubility thermodynamic at 72 h [1]: 5.69 µM (≈ 2.91 µg/mL)
logP at 72 h [2]: 2.75
half-life [3]: > 720 min
half-life [4]: > 720 min
half-life [5]: > 720 min
half-life [6]: 490 min
half-life [7]: > 720 min
half-life [8]: > 720 min
half-life [9]: 433 min
half-life [10]: 479 min
half-life [11]: 28.2 min
half-life at 10 µM [12]: > 69.6 min
remaining at 1.167 h, 10 µM [13]: 76%
Drug uptake [14]: Not Active
Drug uptake [15]: Not Active
Drug uptake [16]: Not Active
Drug uptake [17]: Not Active
